US20010051616A1, “METHOD OF LESSENING THE RISK OF VERTEBRAL FRACTURES” (priority 1995, published 2001)

Tests used:
[1] = system: vertebral fractures in osteoporotic post-menopausal women
Experimental: VERTEBRAL FRACTURES—Calculations of prevalent and incident categorical vertebral fractures were performed by comparing each patient's baseline vertebral heights with a reference population (prevalent fracture) and with their follow-up heigiits (incident fractures). Only data from the true baselines were used to determine prevalent fractures. Any vertebral height ratio more than three standard deviations below its corresponding population reference value was defined as a prevalent vertebral fracture. An incident fracture was defined as greater than or equal to a 20% reduction from baseline vertebral height, with an absolute decrease of at least 4 mm in any vertebral height between baseline and follow-up.
(§1) Postmenopausal women having a “low” lumbar spinal bone mineral density, defined as either a bone mineral density (BMD) of less than or equal to 0.92 g/cm^2 (+ or −0.02 g/cm^2) as measured by Lunar DPX method, or less than or equal to 0.80 g/cm^2 (+ or −0.02 g/cm^2) as measured by the Hologic QDR method are considered to have osteoporosis. This definition corresponds to a BMD of approximately two and one-half standard deviations below the mean BMD of mature pre-menopausal Caucasian women in the United States. Patients are otherwise in good health based on medical history, a physical examination and a laboratory screening evaluation.
(§2) Data was collected on a total of 881 patients from two study groups (cohorts), following virtually identical protocol design and procedures, except that one study was conducted in the United States, and the other was conducted in Canada, Mexico, Europe, Israel, South America, Australia and New Zealand. Data from the two groups was then pooled. […] Additionally, all patients received dietary evaluation and instruction on calcium intake.
(§3) Assessment of vertebral fracture and vertebral deformity (SDI) was based on measurements from lateral spine x-rays, blinded to sequence. Lateral spine x-rays were taken at baseline, one, two and three years. The process of reading the x-rays involved a computerized entry of measurements taken at each of the vertebrae noted on the x-rays, a process known as digitization. […] A computer mouse with cross-hairs is used to enter the data as X,Y coordinates into a commercially available digitization board and computer software program, which computes the distance between landmarks (vertebral heights) in millimeters.

[2] = system: vertebral deformity in osteoporotic post-menopausal women; details: after three years
Description: as §1, §2, §3

[3] = system: decrease in stature in osteoporotic post-menopausal women; details: over three years
Description: as §1, §2

SMILES: NCCCC(O)(P(=O)(O)O)P(=O)(O)O [alendronate, 4-amino-1-hydroxy-butylidene-1,1-bisphosphonate]
- number of vertebral fractures per 100 patients ([1]; three years): 4.2
- women with a new vertebral fracture ([1]; three years of study, 17 of 526 women, oral 5, 10 or 20/5 mg daily pooled, p=0.034 vs placebo): 3.23%
- proportion of patients experiencing two or more fractures among patients with at least one incident vertebral fracture ([1]; three years, 3/17): 18%
- mild fractures (end-plate deformity fractures) among women who sustained an incident fracture ([1]; three years, 6/17): 6/17 (35.3%)
- severe fractures (crush or wedge fractures) among women who sustained an incident fracture ([1]; three years, 11/17): 11/17 (64.7%)
- reduction in vertebral fracture rate per 100 patients compared to placebo ([1]; total number of vertebral fractures): at least 63%
- SDI mean change from baseline, women with increased deformity [2]: 0.143
- SDI mean change from baseline, overall ([2]; all women): 0.041
- patients with progression (increase) in vertebral deformity by SDI ([2]; p=0.028 by Chi-square test): 33%
- mean stature lost in patients who sustained at least one vertebral fracture [3]: 5.9 mm
